Source: patent publication US11542311B2, “Fusion protein, preparation method therefor and application thereof in preparing ophthalmic disease treatment, anti-inflammation and anti-tumor medicament” (JIANGSU RONGTAI BIOTECH CO., LTD., priority 2017, dated 2023)

How the values were obtained:
mouse spleen lymphocytes = assay: Proliferation of mouse spleen lymphocytes (ConA, MTT); format: cell-based; conditions: 20 μg/mL, 48 h
Method: Tris-NH4Cl was used to break the red blood cells, which were allowed to stand in an ice water bath for 4 min and centrifuged (1000 rpm, 5 min), the supernatant was discarded, and the cells were washed twice with sterile PBS.
The cells were statically cultured in a cell incubator at 37° C. for 48 h. After the completion of the culture, 20 μL of MTT was added to each well, and the culture was continued for 4 h. Finally, all the solutions in each well were discarded, 100 μL of DMSO was added to each well, and the mixture was shaken and detected by a microplate reader for OD value at 570 nm. 5 parallels were preformed for per well.

[1] = system: toe swelling in rat induced by carrageenan; assay: Acute inflammation of toe swelling in rat induced by carrageenan; format: in vivo, SD rats; conditions: 10 mg/kg
Method: 80 SD rats were randomly divided into 8 groups with 10 mice for each group. […] The drug was administered once by injection every 5 days, and the model group was given an equal volume of physiological saline for 3 days and fed normally. On the third day after the administration, 0.1 mL of 1% carrageenan was injected subcutaneously into the right hind toes of the rats to induce inflammation. The foot volume was measured at 1 h, 3 h, 5 h, and 7 h after inflammation. The swelling degree of the foot was calculated according to the following formula: the swelling degree of the foot (mL)=the volume of the foot after inflammation−the volume before inflammation. The number of milliliters of spilled liquid was recorded (method: the protruding point of the right joint was circled with a ballpoint pen and used as a measurement mark, and the right hind feet of the rats were sequentially placed in the volume measuring device, so that the hind limbs were exposed outside the cylinder, and the depth of the immersion was limited to the overlap of the circle and the liquid level. After the foot entered the liquid, the liquid level was raised, and the volume of the spilled liquid was the volume of the right hind foot of the rat, and the normal volume of the right hind foot of each mouse is sequentially determined).

[2] = system: IL-1β production by mouse peritoneal macrophages; assay: IL-1β production by mouse peritoneal macrophages (ELISA); format: cell-based; conditions: 20 μg/mL, 48 h
Method: (1) IL-1β production: mice were intraperitoneally injected with 1 mL of broth medium containing 6% starch, and three days later, the mouse peritoneal macrophages were aseptically taken, washed twice with a 1640 medium, adjusted to the cell concentration of 2×10^6 cells/mL, inoculated into a 24-well culture plate, 1 mL/well, incubated for 3 h in a cell culture incubator, and shaken once every 30 min, so that the cells were allowed to adhere sufficiently. Then, the cells were washed twice with a culture liquid to remove un-adhered cells. […] After administration, the culture was continued for 48 h, the cells were centrifuged at 1000 r/min for 15 min. The supernatant was taken as a sample for testing activity of IL-1β.
(2) Determination of IL-1β content: the detection was performed by using mouse IL-1β enzyme-linked immunosorbent assay kit from R&D company. […]

[3] = system: peritoneal capillary permeability in mice; assay: Peritoneal capillary permeability in mice (Evans blue, HAc); format: in vivo, Kunming mice; conditions: 10 mg/kg by injection
Method: The drug was administered once by injection every 5 days, and the blank model group was given an equal volume of physiological saline for 5 days and fed normally. On the 5th day after the administration, a 5 g/L of Evans blue physiological saline solution was injected into the tail vein at […], followed by intraperitoneal injection ([…]) HAc solution (6 mL/L) to induce inflammation. After 20 min, the mice were sacrificed by cervical dislocation. 5 mL of physiological saline was intraperitoneally injected, the abdomen was gently rubbed for 2 min, the abdominal cavity was cut, a peritoneal washing solution was collected and centrifuged at 4000 rpm for 10 min, 1 mL of supernatant was taken, and 3 mL of physiological saline was added to obtain a 4 mL of dilution. The absorbance OD value of the dilution was measured by an ultraviolet spectrophotometer at a wavelength of 590 nm, and the amount of pigment exudation was expressed by the OD590 nm value, and peritoneal capillary permeability in mice was examined.

[4] = system: angiogenesis of chicken embryo chorioallantoic membrane; assay: Chicken embryo chorioallantoic membrane (CAM) angiogenesis assay; format: in vivo, White Leghorn chicken embryos; conditions: 10 μg, 72 hours
Method: The study has shown that the biosynthesis rate of collagen reached the maximum on the 8th to 11th day of chicken embryo development, which was the most vigorous stage of angiogenesis, and the body's immune system had not yet been fully established at that time, and thus the chicken embryos developed to the 8th day was selected to be administered. […] The following steps were used:
(1) The White Leghorn chicken embryos on day 6 were cultured in a 37° C. incubator at 60%-70% humidity for two days.
(2) A 1.0 cm×1.0 cm window was drilled above the chicken embryo air sac, and the inner membrane was torn off with forceps to expose the chorioallantoic membrane. Lens paper having a diameter of 5 mm was used as a loading carrier, and was placed on the chorioallantoic membrane of the chicken embryo air sac. […]
(3) The chicken embryo air sac was sealed with a sterile transparent tape, and after culturing at 37° C. for 72 hours, the chicken embryo air sac was opened, and a fixative (formaldehyde:acetone=1:1) was added for fixation for 15 minutes. The chorioallantoic membrane to which the lens paper was adhered was taken out, the distribution of the new blood vessels was observed, and the new blood vessels were counted and photographed. Five replicates were set for each dose and the results were statistically analyzed.

[5] = system: human retinal vascular endothelial cell (HRCEC); assay: MTT assay, proliferation of human retinal vascular endothelial cell (HRCEC); format: cell-based; conditions: 5 μg/mL, 48 h
Method: The activity of the integrin blocker polypeptide to inhibit proliferation of human retinal vascular endothelial cells was examined by MTT assay. HRCEC cells were cultured in a 5% CO2 incubator at 37° C. to a density of 90% or more, and then collected by trypsinization. The cells were resuspended in the culture liquid and counted under a microscope. The cell concentration was adjusted to 3.0×10^4 cells/mL. The cell suspension was inoculated into a 96-well plate, 100 μL per well, and cultured overnight in a 5% CO2 incubator at 37° C. […] After the cells were fully adhered, each dilution was added to a 96-well plate, 100 μL per well, respectively. […] 20 μL of 5 mg/mL MTT was added to each well of a 96-well plate, and incubation was continued for 4 hours. The medium was aspirated and 100 μL of DMSO was added per well for dissolution. The absorbance was measured at 570 nm with a microplate reader with a reference wavelength of 630 nm, and the proliferation inhibition (PI) was calculated. The formula was as follows: […]
where Ntest is the OD value of the test group and Ncontrol is the OD value of the blank control group.
The test was repeated 5 times independently. The results obtained from the test were calculated as mean±SD, and statistical t-test was performed. P<0.05 was considered as a significant difference, and P<0.01 was considered as an extremely significant difference.

Row | Molecule | A570 nm/A630 nm (mouse spleen lymphocytes) | PI (%) (mouse spleen lymphocytes) | Swelling degree ([1]; 1 h after carrageenan) [mL] | Swelling degree ([1]; 3 h after carrageenan) [mL] | Swelling degree ([1]; 5 h after carrageenan) [mL] | Swelling degree ([1]; 7 h after carrageenan) [mL] | IL-1β [2] [pg/mL] | PI (%) ([2]; IL-1β) | Exudation rate (OD590) [3] | Blood vessel number [4] | A570 nm/A630 nm [5]
1 | C[C@@H]1C[C@H]2[C@@H]3CCC4=CC(=O)C=C[C@]4(C)[C@@]3(F)[C@@H](O)C[C@]2(C)[C@@]1(O)C(=O)CO [Dex, dexamethasone, reference compound] | 0.3468 ± 0.1144 | 41.11 | 0.21 ± 0.11 | 0.26 ± 0.10 | 0.26 ± 0.11 | 0.25 ± 0.09 | 322.46 ± 20.56 | 61.38 | 0.27 ± 0.03 |  | 
2 | bevacizumab [Avastin ®, reference compound] |  |  |  |  |  |  |  |  |  | 63 ± 17 | 0.4544
